# Source: PMC5880808, “A lever-like transduction pathway for long-distance chemical- and mechano-gating of the mechanosensitive Piezo1 channel” (Nature Communications, 2018)
# Legend:
# [1] = tested on: mPiezo1 loop deletion mutants ΔL15-16 (657-677) and ΔL19-20 (870–921); set-up: method as in PMID 29469092; details: ΔL15-16 and ΔL19-20; cited from earlier work
# [2] = target: T1, mPiezo1 L1342A/L1345A mutant (Mus musculus, UniProt E2JF22, L1342A/L1345A); test: Patch clamp (chemical-induced and stretch-induced currents), L1342A/L1345A mutant; assay type: cell-based; details: Piezo1-KO-HEK cells for chemical-induced currents
# T1 construct: The full-length mPiezo1 has 2547 amino acids in each monomer; expressed in transfected cells
# Protocol: Protocols for HEK293T cell culture, transient transfection, and patch-clamp experiments with an Axopatch 200B amplifier (Axon Instruments) or HEKA EPC10 were essentially similar to how previously described[6],[8]. […] The extracellular solution was composed of (in mM) 133 NaCl, 3 KCl, 2.5 CaCl2, 1 MgCl2, 10 HEPES (pH 7.3 with NaOH), and 10 glucose. All experiments were carried out at room temperature. Currents were sampled at 20 kHz, filtered at 2 kHz using the Clampex 10.4 software (Axon Instruments) or Patchmaster software. Leak currents before mechanical stimulations were subtracted offline from the current traces.
# Stock solutions of Jedi1 (100 mM), Jedi2 (100 mM), and Yoda1 (30 mM) were solubilized in DMSO and diluted to the desired final concentrations as indicated in the figure legends using external or internal solutions. […] In other conditions, the compounds were directly added to the recording chamber or pipette solution, and the currents were recorded within 10 min. […]
# Stretch-activated currents were recorded in the cell-attached patch-clamp configuration as previously described. […] Stretch-activated channels were recorded at a holding potential of −80 mV with pressure steps from 0 to −100 mm Hg (−10 mm Hg increments), and 4–11 recording traces were averaged per cell for analysis. […]
# Piezo1 = tested on: Piezo1; set-up: method as in PMID 26001275; details: read-out: estimated EC50; cited from earlier work
# [3] = tested on: mPiezo1 loop deletion mutants ΔL15-16 (657-677) and ΔL19-20 (870–921); set-up: method as in PMID 29469092; details: ΔL15-16 and ΔL19-20; cited from earlier work; remark: listed apart in the source
# [4] = tested on: mPiezo1 mutants L1342A/L1345A; L1342D/L1345D; L1342S/L1345S; L1342A; L1345A; test: Single-cell Ca2+ imaging or FLIPR, L1342/L1345 mutants; assay type: cell-based, mouse; details: all five mutants, 1 mM Jedi1, 30 μM Yoda1
# Protocol: HEK293T cells were grown in Dulbecco’s modified Eagle medium containing 4.5 mg/ml glucose, 10% fetal bovine serum, and 1% penicillin/streptomycin. Cells were seeded in 50 μg/ml poly-D-lysine-coated 96-well plates (3 × 10^4 cells/well) and allowed to grow for about 18 h, and then co-transfected with a total of 250 ng cDNA containing Piezo1 or Piezo2 and GCaMP6s using Lipofectamine 2000 (Invitrogen, Life Technology). Two days after transfection the cells were washed with buffer containing 1× Hanks’ balanced salt solution (HBSS; 1.3 mM Ca^2+) and 10 mM HEPES (pH 7.2). The 96-well plates were then transferred to the FLIPR Tetra (Molecular Device) for monitoring the GCAMP6s fluorescence before and after addition of the compounds that were prepared in separate compound plates. […]
# Fura-2 single-cell Ca^2+ imaging was performed according to the previous protocol. […] The coverslip was mounted into an inverted Nikon-Tie microscope equipped with a CoolSNAP charge-coupled devise (CCD) camera and Lambda XL light box (Sutter Instrument), and mCherry-positive and -negative cells were selected for measurement of the 340/380 ratio with a ×20 objective (numerical aperture 0.75) using the MetaFluor Fluorescence Ratio Imaging software (Molecular Device).
# mPiezo1 = target: T2, mPiezo1 (Mus musculus, UniProt E2JF22); test: Cell-attached patch with pressure clamp (stretch-activated currents); assay type: cell-based; details: for slope sensitivity (s): DMSO 14.1 ± 0.7; for P50 (the pressure required for half maximal activation): DMSO −27.0 ± 3.4
# T2 construct: The full-length mPiezo1 has 2547 amino acids in each monomer; expressed in transfected cells; host or cells: HEK293T
# Protocol: Stretch-activated currents were recorded in the cell-attached patch-clamp configuration as previously described. Currents were sampled at 20 kHz and filtered at 2 kHz. Pipette was filled with a solution consisting of (in mM) 130 NaCl, 5 KCl, 10 HEPES, 1 CaCl2, 1 MgCl2, and 10 TEA-Cl (pH 7.3, balanced with NaOH). The external solution used to zero the membrane potential consisted of (in mM) 140 KCl, 10 HEPES, 1 MgCl2, and 10 glucose (pH 7.3 with KOH). All experiments were done at room temperature. Membrane patches were stimulated with negative pressure pulses for 500 ms through the recording electrode using a Patchmaster-controlled pressure clamp HSPC-1 device (ALA-scientific). Stretch-activated channels were recorded at a holding potential of −80 mV with pressure steps from 0 to −100 mm Hg (−10 mm Hg increments), and 4–11 recording traces were averaged per cell for analysis. Current-pressure relationships were fitted with a Boltzmann equation of the form: I(P) = [1 + exp (−(P – P50)/s)]^−^1, where I is the peak of stretch-activated current at a given pressure, P is the applied patch pressure (in mm Hg), P50 is the pressure value that evoked a current value which is 50% of Imax, and s reflects the current sensitivity to pressure.
# [5] = set-up: method as in PMID 26001275; details: up; cited from earlier work
# Human Piezo1 (hPiezo1) = target: T3, Human Piezo1 (hPiezo1) (Homo sapiens, UniProt Q92508); test: Fura-2 single-cell Ca2+ imaging of hPiezo1-expressing cells; assay type: cell-based
# T3 construct: expressed in transfected cells; host or cells: HEK293T
# Protocol: Fura-2 single-cell Ca^2+ imaging was performed according to the previous protocol. In brief, mCherry-Piezo1 cDNA (1 μg)-transfected HEK293T cells were plated onto 12-mm round glass coverslips, which were coated with poly-D-lysine and placed in 24-well plates, and subject to Fura-2 single-cell Ca^2+ imaging about 36 h post transfection. Cells were washed with buffer containing 1× HBSS (1.3 mM Ca^2+) and 10 mM HEPES (pH 7.2), incubated with 2.5 μM Fura-2 and 0.05% Pluronic F-127 (Life Technologies) for 30 min, then washed again with the previously mentioned buffer. The coverslip was mounted into an inverted Nikon-Tie microscope equipped with a CoolSNAP charge-coupled devise (CCD) camera and Lambda XL light box (Sutter Instrument), and mCherry-positive and -negative cells were selected for measurement of the 340/380 ratio with a ×20 objective (numerical aperture 0.75) using the MetaFluor Fluorescence Ratio Imaging software (Molecular Device).
# T2 sequence (E2JF22 whole entry): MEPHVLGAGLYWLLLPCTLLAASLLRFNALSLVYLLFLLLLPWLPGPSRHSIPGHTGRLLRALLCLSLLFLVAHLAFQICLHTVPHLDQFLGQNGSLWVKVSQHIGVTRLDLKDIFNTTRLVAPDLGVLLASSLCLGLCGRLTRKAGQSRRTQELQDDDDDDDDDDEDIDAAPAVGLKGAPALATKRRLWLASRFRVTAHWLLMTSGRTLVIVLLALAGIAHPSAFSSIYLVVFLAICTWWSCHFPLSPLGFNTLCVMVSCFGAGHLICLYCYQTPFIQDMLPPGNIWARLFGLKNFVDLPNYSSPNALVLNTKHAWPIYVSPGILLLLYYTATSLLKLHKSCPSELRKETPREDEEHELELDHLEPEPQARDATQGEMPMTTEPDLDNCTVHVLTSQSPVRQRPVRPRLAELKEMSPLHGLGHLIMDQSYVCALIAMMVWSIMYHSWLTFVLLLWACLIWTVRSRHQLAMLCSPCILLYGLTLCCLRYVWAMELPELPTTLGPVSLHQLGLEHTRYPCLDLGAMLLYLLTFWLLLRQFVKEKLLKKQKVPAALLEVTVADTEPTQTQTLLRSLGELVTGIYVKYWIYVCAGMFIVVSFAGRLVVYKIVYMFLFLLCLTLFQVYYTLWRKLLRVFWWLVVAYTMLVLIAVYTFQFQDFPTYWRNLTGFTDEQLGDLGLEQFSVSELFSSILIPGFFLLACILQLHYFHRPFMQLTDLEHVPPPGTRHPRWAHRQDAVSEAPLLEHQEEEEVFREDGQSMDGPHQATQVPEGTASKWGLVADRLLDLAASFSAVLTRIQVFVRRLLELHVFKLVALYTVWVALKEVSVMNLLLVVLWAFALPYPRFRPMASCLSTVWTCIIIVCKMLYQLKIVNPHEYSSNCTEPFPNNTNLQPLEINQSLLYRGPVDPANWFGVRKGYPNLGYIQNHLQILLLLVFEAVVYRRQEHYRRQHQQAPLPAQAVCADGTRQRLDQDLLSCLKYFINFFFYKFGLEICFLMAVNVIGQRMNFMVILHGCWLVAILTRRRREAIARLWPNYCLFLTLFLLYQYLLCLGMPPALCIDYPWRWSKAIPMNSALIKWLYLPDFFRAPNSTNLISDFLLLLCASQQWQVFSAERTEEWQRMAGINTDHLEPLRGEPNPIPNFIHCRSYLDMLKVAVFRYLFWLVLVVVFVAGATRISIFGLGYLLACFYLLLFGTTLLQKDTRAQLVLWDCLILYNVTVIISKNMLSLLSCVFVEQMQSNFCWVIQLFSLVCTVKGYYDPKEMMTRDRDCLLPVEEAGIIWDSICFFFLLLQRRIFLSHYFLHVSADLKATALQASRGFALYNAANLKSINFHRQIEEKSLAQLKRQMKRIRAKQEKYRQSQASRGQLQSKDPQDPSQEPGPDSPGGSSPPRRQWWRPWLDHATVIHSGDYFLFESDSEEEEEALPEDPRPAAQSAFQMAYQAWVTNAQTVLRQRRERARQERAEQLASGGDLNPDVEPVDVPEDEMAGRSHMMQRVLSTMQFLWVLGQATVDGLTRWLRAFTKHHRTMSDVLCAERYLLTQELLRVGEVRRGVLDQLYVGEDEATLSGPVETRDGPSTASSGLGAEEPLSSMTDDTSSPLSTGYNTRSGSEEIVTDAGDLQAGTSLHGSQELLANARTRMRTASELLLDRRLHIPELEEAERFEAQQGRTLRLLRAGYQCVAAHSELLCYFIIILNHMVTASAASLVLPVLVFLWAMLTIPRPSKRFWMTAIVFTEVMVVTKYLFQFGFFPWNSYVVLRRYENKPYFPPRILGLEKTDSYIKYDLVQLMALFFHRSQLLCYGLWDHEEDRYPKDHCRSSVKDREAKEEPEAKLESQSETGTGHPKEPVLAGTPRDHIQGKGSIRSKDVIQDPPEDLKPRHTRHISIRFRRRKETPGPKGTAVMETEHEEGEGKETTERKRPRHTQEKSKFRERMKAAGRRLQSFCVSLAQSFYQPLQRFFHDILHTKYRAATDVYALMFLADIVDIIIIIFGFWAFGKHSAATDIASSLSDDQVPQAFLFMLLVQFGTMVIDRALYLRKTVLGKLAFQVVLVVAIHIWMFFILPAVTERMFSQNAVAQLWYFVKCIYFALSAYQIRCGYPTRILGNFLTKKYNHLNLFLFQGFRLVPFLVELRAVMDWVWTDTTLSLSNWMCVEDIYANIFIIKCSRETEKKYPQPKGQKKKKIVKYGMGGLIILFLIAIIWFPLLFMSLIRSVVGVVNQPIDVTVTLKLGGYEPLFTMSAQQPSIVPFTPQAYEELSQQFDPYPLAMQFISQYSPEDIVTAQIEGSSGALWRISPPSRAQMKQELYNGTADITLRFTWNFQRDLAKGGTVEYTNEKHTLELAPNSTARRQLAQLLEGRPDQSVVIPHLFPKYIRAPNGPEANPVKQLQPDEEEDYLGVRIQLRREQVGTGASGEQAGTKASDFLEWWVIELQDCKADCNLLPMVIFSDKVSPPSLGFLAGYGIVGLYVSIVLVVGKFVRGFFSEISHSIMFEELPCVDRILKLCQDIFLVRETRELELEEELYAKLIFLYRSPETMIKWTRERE
# T1 sequence (E2JF22 whole entry L1342A/L1345A): as the sequence (E2JF22 whole entry) above, with L1342A, L1345A counted along it
# T3 sequence (Q92508 whole entry): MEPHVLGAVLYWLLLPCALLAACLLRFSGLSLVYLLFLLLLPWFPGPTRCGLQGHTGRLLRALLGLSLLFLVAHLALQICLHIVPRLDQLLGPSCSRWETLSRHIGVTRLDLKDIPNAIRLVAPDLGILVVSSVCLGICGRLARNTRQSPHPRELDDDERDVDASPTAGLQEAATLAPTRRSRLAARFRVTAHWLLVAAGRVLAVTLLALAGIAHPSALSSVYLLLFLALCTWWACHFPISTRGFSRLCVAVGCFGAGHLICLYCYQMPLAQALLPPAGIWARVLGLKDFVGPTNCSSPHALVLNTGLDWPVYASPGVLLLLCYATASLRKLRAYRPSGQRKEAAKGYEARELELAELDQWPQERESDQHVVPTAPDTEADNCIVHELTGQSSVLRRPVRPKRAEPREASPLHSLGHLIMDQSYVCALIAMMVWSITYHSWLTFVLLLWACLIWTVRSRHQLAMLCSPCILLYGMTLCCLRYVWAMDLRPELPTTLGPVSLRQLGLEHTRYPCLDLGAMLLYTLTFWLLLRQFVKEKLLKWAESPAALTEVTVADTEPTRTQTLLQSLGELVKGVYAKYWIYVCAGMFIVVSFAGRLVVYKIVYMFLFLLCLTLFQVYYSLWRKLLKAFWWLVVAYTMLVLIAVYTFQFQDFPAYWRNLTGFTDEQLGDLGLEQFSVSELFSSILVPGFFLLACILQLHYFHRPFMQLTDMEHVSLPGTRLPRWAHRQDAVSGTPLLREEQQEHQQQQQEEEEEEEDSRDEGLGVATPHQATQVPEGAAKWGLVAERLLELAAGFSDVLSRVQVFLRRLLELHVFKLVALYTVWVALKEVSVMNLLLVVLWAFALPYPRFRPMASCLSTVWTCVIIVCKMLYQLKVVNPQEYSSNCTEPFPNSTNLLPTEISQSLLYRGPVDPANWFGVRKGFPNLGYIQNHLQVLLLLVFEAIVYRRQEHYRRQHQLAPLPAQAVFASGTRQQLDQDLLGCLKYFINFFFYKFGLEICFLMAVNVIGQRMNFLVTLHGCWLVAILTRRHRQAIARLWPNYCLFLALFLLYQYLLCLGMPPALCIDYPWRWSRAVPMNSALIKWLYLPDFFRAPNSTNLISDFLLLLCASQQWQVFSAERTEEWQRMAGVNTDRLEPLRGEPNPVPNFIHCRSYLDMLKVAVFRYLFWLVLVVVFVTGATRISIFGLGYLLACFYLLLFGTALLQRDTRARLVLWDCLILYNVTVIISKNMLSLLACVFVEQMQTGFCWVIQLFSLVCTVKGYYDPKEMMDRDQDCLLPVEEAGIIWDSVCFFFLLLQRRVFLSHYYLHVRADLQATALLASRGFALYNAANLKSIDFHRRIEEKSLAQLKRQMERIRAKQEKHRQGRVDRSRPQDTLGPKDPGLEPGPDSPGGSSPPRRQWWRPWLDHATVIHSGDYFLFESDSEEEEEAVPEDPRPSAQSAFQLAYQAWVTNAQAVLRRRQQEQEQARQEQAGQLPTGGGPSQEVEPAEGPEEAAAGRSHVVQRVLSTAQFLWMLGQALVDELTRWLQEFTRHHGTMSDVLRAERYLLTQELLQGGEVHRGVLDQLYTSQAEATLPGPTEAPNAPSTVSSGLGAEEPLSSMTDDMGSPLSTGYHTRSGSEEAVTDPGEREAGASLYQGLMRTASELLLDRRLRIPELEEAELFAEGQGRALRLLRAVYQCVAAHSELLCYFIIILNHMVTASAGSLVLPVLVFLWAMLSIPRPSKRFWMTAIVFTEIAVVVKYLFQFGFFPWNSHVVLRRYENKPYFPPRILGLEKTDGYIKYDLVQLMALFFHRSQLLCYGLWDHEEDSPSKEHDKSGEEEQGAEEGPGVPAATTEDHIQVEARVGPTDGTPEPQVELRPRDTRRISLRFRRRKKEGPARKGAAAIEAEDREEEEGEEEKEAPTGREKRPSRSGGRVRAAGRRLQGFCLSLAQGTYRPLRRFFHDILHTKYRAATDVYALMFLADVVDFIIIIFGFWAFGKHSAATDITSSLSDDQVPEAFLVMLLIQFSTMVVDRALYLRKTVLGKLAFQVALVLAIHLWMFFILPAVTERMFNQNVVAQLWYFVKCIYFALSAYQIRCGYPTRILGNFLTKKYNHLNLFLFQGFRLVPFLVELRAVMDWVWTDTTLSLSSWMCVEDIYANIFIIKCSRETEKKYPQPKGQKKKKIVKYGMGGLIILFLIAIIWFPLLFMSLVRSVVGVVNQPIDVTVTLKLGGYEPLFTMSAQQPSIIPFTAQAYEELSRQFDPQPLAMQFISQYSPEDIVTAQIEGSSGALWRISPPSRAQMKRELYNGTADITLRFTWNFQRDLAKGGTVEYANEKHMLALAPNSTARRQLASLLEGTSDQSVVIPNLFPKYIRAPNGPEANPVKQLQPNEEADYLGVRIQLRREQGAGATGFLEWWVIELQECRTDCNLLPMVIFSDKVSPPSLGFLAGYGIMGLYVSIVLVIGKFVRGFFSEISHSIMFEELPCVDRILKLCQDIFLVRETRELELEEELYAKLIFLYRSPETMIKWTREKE
compound,measurement,setting,value
"Clc1cccc(Cl)c1CSc1nnc(-c2cnccn2)s1 [Yoda1, reference compound]",ability to evoke Ca2+ responses in loop deletion mutants,[1],retained its ability
same,"inward currents, stretching-current relationship and P50 of the L1342A/L1345A mutant",[2],neither elicited inward currents
same,EC50,Piezo1,~17.1 µM
same,ability to potentiate poking-induced currents of loop deletion mutants,[3],retained its ability
same,compound-evoked Ca2+ responses of L1342/L1345 mutants,[4],completely lost
same,slope sensitivity (s),mPiezo1,8.0 ± 2.4 mm Hg
same,maximal stretching-induced Piezo1 current,mPiezo1; −80 mV,Neither Jedi1 nor Yoda1 altered
same,shift of the pressure-current relationship,mPiezo1; −80 mV,significant leftward shift
same,P50 (the pressure required for half maximal activation),mPiezo1; −80 mV,−15.1 ± 0.9 mm Hg
same,water solubility,[5],~ 30 μM
Cc1oc(-c2ccccc2)cc1C(=O)O [Jedi1],"inward currents, stretching-current relationship and P50 of the L1342A/L1345A mutant",[2],neither elicited inward currents
same,Ca2+ response (Fura-2),Human Piezo1 (hPiezo1),responded to Jedi1 as well
same,compound-evoked Ca2+ responses of L1342/L1345 mutants,[4],completely lost
same,slope sensitivity (s),mPiezo1,9.8 ± 1.9 mm Hg
same,maximal stretching-induced Piezo1 current,mPiezo1; −80 mV,Neither Jedi1 nor Yoda1 altered
same,P50 (the pressure required for half maximal activation),mPiezo1; −80 mV,−16.7 ± 2.2 mm Hg
